# Patent US12110288B2, “MASP-2 inhibitors and methods of use” (Omeros Corporation, priority 2019, dated 2024)
# Counter-ions that a name gives are not always drawn.
# Target: T1, MASP-2 (CCP1-CCP2-SP) (Homo sapiens, UniProt O00187)
# T1 construct: 15 μL of Enzyme MASP-2 (CCP1-CCP2-SP) in Assay Buffer
# Assay: Enzymatic Assay for MASP-2
# Assay type: biochemical
# Settings: fluorogenic substrate based on C2 cleavage site, room temperature, 20 mM HEPES pH 7.4
# Protocol: Enzymatic Assay for MASP-2
# The MASP-2 assay utilizes a fluorogenic substrate, based on the cleavage site for its natural substrate C2. The assay is run at room temperature in an assay buffer containing 20 mM HEPES, pH 7.4, 140 mM NaCl and 0.1% Tween 20. Assay parameters are adjusted such that the assay is linear with respect to time, enzyme, and substrate concentrations. Under these optimized assays conditions, IC50 values are equivalent to Ki values, except in a few cases of “tight binding” inhibitors. Cases of “tight binding” or possible “slow binding” inhibitors are handled by the methods described in Copeland R. A. (2013) Evaluation of Enzyme Inhibitors in Drug Discovery. 2nd Ed., John Wiley and Sons, Inc., Chapters 5-7.
# The MASP-2 assay protocol is carried out as follows. Test compounds are serially diluted in DMSO and then 100 nL of each dilution is transferred to the assay plate(s). 10 μL of Assay Buffer is added, followed by 15 μL of Enzyme MASP-2 (CCP1-CCP2-SP) in Assay Buffer. 15 μL of Substrate in Assay Buffer is then added and mixed to start the reactions. After 20 min at room temperature, 15 μL of a stop solution (0.1 M acetic acid) is added, mixed and the plates are read on a SpectraMax i3x Microplate Reader and exported as Excel files. Each assay plate included a “no inhibitor” (DMSO Only) control, a “no enzyme” control and a reference inhibitor control. % Activity values=100*(average test comp. fluorescence−average “no enzyme” fluorescence)/(average “DMSO only” fluorescence−average “no enzyme” fluorescence). IC50 and Ki values are very reproducible, falling well within ±2-fold.
# T1 sequence (O00187 445-686 limits assumed): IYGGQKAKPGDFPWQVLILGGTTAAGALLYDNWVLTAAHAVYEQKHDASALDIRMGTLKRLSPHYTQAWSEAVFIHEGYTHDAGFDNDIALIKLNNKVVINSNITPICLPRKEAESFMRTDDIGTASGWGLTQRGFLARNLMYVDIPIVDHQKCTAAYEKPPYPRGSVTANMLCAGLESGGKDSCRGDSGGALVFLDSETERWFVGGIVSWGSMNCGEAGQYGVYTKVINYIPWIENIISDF
# T1 sequence (O00187 298-444 partner limits assumed): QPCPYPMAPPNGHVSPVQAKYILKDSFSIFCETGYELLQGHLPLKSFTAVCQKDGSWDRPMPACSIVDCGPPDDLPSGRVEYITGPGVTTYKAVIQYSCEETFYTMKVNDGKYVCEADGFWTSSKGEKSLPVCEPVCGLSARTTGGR
row,Compound,Ki [nM]
1,"O=C(Cn1c(-c2ccccc2)cnc(NC2(c3ccccc3)COC2)c1=O)NCc1cc2cnccc2[nH]1 [Compound 51, N-((1H-Pyrrolo[3,2-c]pyridin-2-yl)methyl)-2-(2-oxo-6-phenyl-3-((3-phenyloxetan-3-yl)amino)pyrazin-1(2H)-yl)acetamide trifluoroacetate]",< 500
2,"O=C(Cn1c(-c2ccccc2)cnc(NCC2(c3ccccc3)CC2)c1=O)NCc1cc2cnccc2[nH]1 [Compound 52, N-((1H-Pyrrolo[3,2-c]pyridin-2-yl)methyl)-2-(2-oxo-6-phenyl-3-(((1-phenylcyclopropyl)methyl)amino)pyrazin-1(2H)-yl)acetamide trifluoroacetate]",< 500
3,"CC(C)(C)OC(=O)N1CCC2(CC1)CCN(c1ncc(-c3ccccc3)n(CC(=O)NCc3cc4cnccc4[nH]3)c1=O)C2 [Compound 53, Tert-Butyl 2-(4-(2-(((1H-Pyrrolo[3,2-c]Pyridin-2-yl)Methyl)Amino)-2-Oxoethyl)-3-Oxo-5-Phenyl-3,4-Dihydropyrazin-2-yl)-2,8-Diazaspiro[4.5]Decane-8-Carboxylate]",< 500
4,"O=C(Cn1c(-c2ccccc2)cnc(N2CCC3(CCNCC3)C2)c1=O)NCc1cc2cnccc2[nH]1 [Compound 54, N-((1H-Pyrrolo[3,2-c]Pyridin-2-yl)Methyl)-2-(2-Oxo-6-Phenyl-3-(2,8-Diazaspiro[4.5]Decan-2-yl)Pyrazin-1(2H)-yl)Acetamide Di-Trifluoroacetate]",500 to 2500
5,"O=C(Cn1c(-c2ccccc2)cnc(NCC2(c3ccc(F)cc3)COC2)c1=O)NCc1cc2cnccc2[nH]1 [Compound 55, N-((1H-Pyrrolo[3,2-c]pyridin-2-yl)methyl)-2-(3-(((3-(4-fluorophenyl)oxetan-3-yl)methyl)amino)-2-oxo-6-phenylpyrazin-1(2H)-yl)acetamide trifluoroacetate]",< 500
6,"O=C(Cn1c(-c2ccccc2)cnc(NCC2(c3ccccc3)CCC2)c1=O)NCc1cc2cnccc2[nH]1 [Compound 56, N-((1H-Pyrrolo[3,2-c]pyridin-2-yl)methyl)-2-(2-oxo-6-phenyl-3-(((1-phenylcyclobutyl)methyl)amino)pyrazin-1(2H)-yl)acetamide trifluoroacetate]",< 500
7,"O=C(Cn1c(-c2ccccc2)cnc(NCC2(c3ccc(Cl)cc3)CC2)c1=O)NCc1cc2cnccc2[nH]1 [Compound 57, N-((1H-Pyrrolo[3,2-c]pyridin-2-yl)methyl)-2-(3-(((1-(4-chlorophenyl)cyclopropyl)methyl)amino)-2-oxo-6-phenylpyrazin-1(2H)-yl)acetamide trifluoroacetate]",< 500
8,"O=C(Cn1c(-c2ccccc2)cnc(NCc2ccccc2)c1=O)NCc1cc2cnccc2[nH]1 [Compound 58, N-((1H-Pyrrolo[3,2-c]Pyridin-2-yl)Methyl)-2-(3-(Benzylamino)-2-Oxo-6-Phenylpyrazin-1(2H)-yl)Acetamide Trifluoroacetate]",< 500
9,"O=C(Cn1c(-c2ccccc2)cnc(NCC2(c3ccc(F)cc3)CC2)c1=O)NCc1cc2cnccc2[nH]1 [Compound 59, N-((1H-Pyrrolo[3,2-c]pyridin-2-yl)methyl)-2-(3-(((1-(4-fluorophenyl)cyclopropyl)methyl)amino)-2-oxo-6-phenylpyrazin-1(2H)-yl)acetamide trifluoroacetate]",< 500
10,"O=C(Cn1c(-c2ccccc2)cnc(NCC2(c3ccc(C(F)(F)F)cc3)CC2)c1=O)NCc1cc2cnccc2[nH]1 [Compound 60, N-((1H-Pyrrolo[3,2-c]pyridin-2-yl)methyl)-2-(2-oxo-6-phenyl-3-(((1-(4-(trifluoromethyl)phenyl)cyclopropyl)methyl)amino)pyrazin-1(2H)-yl)acetamide trifluoroacetate]",< 500
11,"COc1ccc(C2(CNc3ncc(-c4ccccc4)n(CC(=O)NCc4cc5cnccc5[nH]4)c3=O)CC2)cc1 [Compound 61, N-((1H-Pyrrolo[3,2-c]pyridin-2-yl)methyl)-2-(3-(((1-(4-methoxyphenyl)cyclopropyl)methyl)amino)-2-oxo-6-phenylpyrazin-1(2H)-yl)acetamide trifluoroacetate]",< 500

# The remaining lines, values ahead:
row,Ki [nM],Compound
1,< 500,"O=C(Cn1c(-c2ccccc2)cnc(NCC2(c3ccccc3F)COC2)c1=O)NCc1cc2cnccc2[nH]1 [Compound 62, N-((1H-Pyrrolo[3,2-c]pyridin-2-yl)methyl)-2-(3-(((3-(2-fluorophenyl)oxetan-3-yl)methyl)amino)-2-oxo-6-phenylpyrazin-1(2H)-yl)acetamide trifluoroacetate]"
2,< 500,"Cc1ccc(C2(CNc3ncc(-c4ccccc4)n(CC(=O)NCc4cc5cnccc5[nH]4)c3=O)CC2)cc1 [Compound 63, N-((1H-Pyrrolo[3,2-c]pyridin-2-yl)methyl)-2-(2-oxo-6-phenyl-3-(((1-(p-tolyl)cyclopropyl)methyl)amino)pyrazin-1(2H)-yl)acetamide trifluoroacetate]"
3,< 500,"O=C(Cn1c(-c2ccccc2)cnc(NCC2(c3cccc(F)c3)CC2)c1=O)NCc1cc2cnccc2[nH]1 [Compound 64, N-((1H-Pyrrolo[3,2-c]pyridin-2-yl)methyl)-2-(3-(((1-(3-fluorophenyl)cyclopropyl)methyl)amino)-2-oxo-6-phenylpyrazin-1(2H)-yl)acetamide]"
4,< 500,"Cn1cc(-c2cnc(NCC3(c4ccc(Cl)cc4)CC3)c(=O)n2CC(=O)NCc2cc3cnccc3[nH]2)cn1 [Compound 65, N-((1H-Pyrrolo[3,2-c]Pyridin-2-yl)Methyl)-2-(3-(((1-(4-Chlorophenyl)Cyclopropyl)Methyl)Amino)-6-(1-Methyl-1H-Pyrazol-4-yl)-2-Oxopyrazin-1(2H)-yl)Acetamide Trifluoroacetate]"
5,< 500,"O=C(Cn1c(-c2ccccc2)cnc(NC2(c3ccccc3)CC2)c1=O)NCc1cc2cnccc2[nH]1 [Compound 66, N-((1H-Pyrrolo[3,2-c]pyridin-2-yl)methyl)-2-(2-oxo-6-phenyl-3-((1-phenylcyclopropyl)amino)pyrazin-1(2H)-yl)acetamide trifluoroacetate]"
6,< 500,"Cc1cc2[nH]c(CNC(=O)Cn3c(-c4ccccc4)cnc(NCCc4ccccc4)c3=O)cc2cn1 [Compound 67, N-((6-Methyl-1H-Pyrrolo[3,2-c]Pyridin-2-yl)Methyl)-2-(2-Oxo-3-(Phenethylamino)-6-Phenylpyrazin-1(2H)-yl)Acetamide Trifluoroacetate]"
7,< 500,"COc1cccc(C2(CNc3ncc(-c4ccccc4)n(CC(=O)NCc4cc5cnccc5[nH]4)c3=O)CC2)c1 [Compound 68, N-((1H-Pyrrolo[3,2-c]pyridin-2-yl)methyl)-2-(3-(((1-(3-methoxyphenyl)cyclopropyl)methyl)amino)-2-oxo-6-phenylpyrazin-1(2H)-yl)acetamide trifluoroacetate]"
8,< 500,"O=C(Cn1c(-c2ccccc2)cnc(NCC2(c3ccc(Cl)cc3)CC2)c1=O)NCc1cnc2c(c1)CNC2 [Compound 69, 2-(3-(((1-(4-Chlorophenyl)Cyclopropyl)Methyl)Amino)-2-Oxo-6-Phenylpyrazin-1(2H)-yl)-N-((6,7-Dihydro-5H-Pyrrolo[3,4-5]Pyridin-3-yl)Methyl)Acetamide Trifluoroacetate]"
9,< 500,"O=C(Cn1c(-c2ccccc2)cnc(NCc2ccc(F)c(F)c2)c1=O)NCc1cc2cnccc2[nH]1 [Compound 70, N-((1H-Pyrrolo[3,2-c]pyridin-2-yl)methyl)-2-(3-((3,4-difluorobenzyl)amino)-2-oxo-6-phenylpyrazin-1(2H)-yl)acetamide trifluoroacetate]"
10,< 500,"O=C(Cn1c(-c2ccccc2)cnc(NCC2(c3cccc(Cl)c3)CC2)c1=O)NCc1cc2cnccc2[nH]1 [Compound 71, N-((1H-Pyrrolo[3,2-c]pyridin-2-yl)methyl)-2-(3-(((1-(3-chlorophenyl)cyclopropyl)methyl)amino)-2-oxo-6-phenylpyrazin-1(2H)-yl)acetamide trifluoroacetate]"
11,< 500,"Cc1nccc2[nH]c(CNC(=O)Cn3c(-c4ccccc4)cnc(NCCc4ccccc4)c3=O)cc12 [Compound 72, trifluoroacetate]"
12,< 500,"O=C(Cn1c(-c2ccccc2)cnc(NCc2ccc(Cl)cc2)c1=O)NCc1cc2cnccc2[nH]1 [Compound 73, N-((1H-Pyrrolo[3,2-c]pyridin-2-yl)methyl)-2-(3-((4-chlorobenzyl)amino)-2-oxo-6-phenylpyrazin-1(2H)-yl)acetamide trifluoroacetate]"
13,< 500,"O=C(Cn1c(-c2ccccc2)cnc(NC2(c3ccc(F)c(F)c3)CC2)c1=O)NCc1cc2cnccc2[nH]1 [Compound 74, N-((1H-Pyrrolo[3,2-c]pyridin-2-yl)methyl)-2-(3-((1-(3,4-difluorophenyl)cyclopropyl)amino)-2-oxo-6-phenylpyrazin-1(2H)-yl)acetamide trifluoroacetate]"
14,< 500,"O=C(Cn1c(-c2ccccc2)cnc(NCc2cccc(Cl)c2)c1=O)NCc1cc2cnccc2[nH]1 [Compound 75, N-((1H-Pyrrolo[3,2-c]pyridin-2-yl)methyl)-2-(3-((3-chlorobenzyl)amino)-2-oxo-6-phenylpyrazin-1(2H)-yl)acetamide trifluoroacetate]"
